# Data reported in BigSolDB 2.1.
compound,measurement,setting,value
Cc1c(OCC(F)(F)F)ccnc1CS(=O)c1nc2ccccc2[nH]1 (stereo not drawn),solubility (mole fraction),"in acetone, 278.15 K",0.0174
same,solubility (mole fraction),"in acetone, 283.15 K",0.0197
same,solubility (mole fraction),"in acetone, 288.15 K",0.0221
same,solubility (mole fraction),"in acetone, 293.15 K",0.0256
same,solubility (mole fraction),"in acetone, 298.15 K",0.0287
same,solubility (mole fraction),"in acetone, 303.15 K",0.0337
same,solubility (mole fraction),"in acetone, 308.15 K",0.0398
same,solubility (mole fraction),"in acetone, 313.15 K",0.0461
same,solubility (mole fraction),"in acetone, 318.15 K",0.053
same,solubility (mole fraction),"in acetonitrile, 278.15 K",0.00324
same,solubility (mole fraction),"in acetonitrile, 283.15 K",0.00406
same,solubility (mole fraction),"in acetonitrile, 288.15 K",0.00516
same,solubility (mole fraction),"in acetonitrile, 293.15 K",0.00642
same,solubility (mole fraction),"in acetonitrile, 298.15 K",0.00805
same,solubility (mole fraction),"in acetonitrile, 303.15 K",0.01
same,solubility (mole fraction),"in acetonitrile, 308.15 K",0.0124
same,solubility (mole fraction),"in acetonitrile, 313.15 K",0.015
same,solubility (mole fraction),"in acetonitrile, 318.15 K",0.0186
same,solubility (mole fraction),"in ethanol, 278.15 K",0.00976
same,solubility (mole fraction),"in ethanol, 283.15 K",0.0114
same,solubility (mole fraction),"in ethanol, 288.15 K",0.0145
same,solubility (mole fraction),"in ethanol, 293.15 K",0.0179
same,solubility (mole fraction),"in ethanol, 298.15 K",0.0221
same,solubility (mole fraction),"in ethanol, 303.15 K",0.0274
same,solubility (mole fraction),"in ethanol, 308.15 K",0.0327
same,solubility (mole fraction),"in ethanol, 313.15 K",0.0402
same,solubility (mole fraction),"in ethanol, 318.15 K",0.0487
same,solubility (mole fraction),"in ethyl acetate, 278.15 K",0.00415
same,solubility (mole fraction),"in ethyl acetate, 283.15 K",0.00512
same,solubility (mole fraction),"in ethyl acetate, 288.15 K",0.00637
same,solubility (mole fraction),"in ethyl acetate, 293.15 K",0.00799
same,solubility (mole fraction),"in ethyl acetate, 298.15 K",0.00962
same,solubility (mole fraction),"in ethyl acetate, 303.15 K",0.0118
same,solubility (mole fraction),"in ethyl acetate, 308.15 K",0.0145
same,solubility (mole fraction),"in ethyl acetate, 313.15 K",0.0175
same,solubility (mole fraction),"in ethyl acetate, 318.15 K",0.0216
same,solubility (mole fraction),"in isobutanol, 278.15 K",0.00434
same,solubility (mole fraction),"in isobutanol, 283.15 K",0.00534
same,solubility (mole fraction),"in isobutanol, 288.15 K",0.00657
same,solubility (mole fraction),"in isobutanol, 293.15 K",0.00803
same,solubility (mole fraction),"in isobutanol, 298.15 K",0.0098
same,solubility (mole fraction),"in isobutanol, 303.15 K",0.012
same,solubility (mole fraction),"in isobutanol, 308.15 K",0.0148
same,solubility (mole fraction),"in isobutanol, 313.15 K",0.0179
same,solubility (mole fraction),"in isobutanol, 318.15 K",0.0218
same,solubility (mole fraction),"in isopropanol, 278.15 K",0.00417
same,solubility (mole fraction),"in isopropanol, 283.15 K",0.00469
same,solubility (mole fraction),"in isopropanol, 288.15 K",0.00569
same,solubility (mole fraction),"in isopropanol, 293.15 K",0.00708
same,solubility (mole fraction),"in isopropanol, 298.15 K",0.00879
same,solubility (mole fraction),"in isopropanol, 303.15 K",0.0109
same,solubility (mole fraction),"in isopropanol, 308.15 K",0.0136
same,solubility (mole fraction),"in isopropanol, 313.15 K",0.0168
same,solubility (mole fraction),"in isopropanol, 318.15 K",0.0204
same,solubility (mole fraction),"in methanol, 278.15 K",0.022
same,solubility (mole fraction),"in methanol, 283.15 K",0.0271
same,solubility (mole fraction),"in methanol, 288.15 K",0.0331
same,solubility (mole fraction),"in methanol, 293.15 K",0.0428
same,solubility (mole fraction),"in methanol, 298.15 K",0.0532
same,solubility (mole fraction),"in methanol, 303.15 K",0.0653
same,solubility (mole fraction),"in methanol, 308.15 K",0.0803
same,solubility (mole fraction),"in methanol, 313.15 K",0.101
same,solubility (mole fraction),"in methanol, 318.15 K",0.125
same,solubility (mole fraction),"in methyl acetate, 278.15 K",0.00633
same,solubility (mole fraction),"in methyl acetate, 283.15 K",0.00729
same,solubility (mole fraction),"in methyl acetate, 288.15 K",0.00849
same,solubility (mole fraction),"in methyl acetate, 293.15 K",0.0105
same,solubility (mole fraction),"in methyl acetate, 298.15 K",0.0131
same,solubility (mole fraction),"in methyl acetate, 303.15 K",0.0158
same,solubility (mole fraction),"in methyl acetate, 308.15 K",0.02
same,solubility (mole fraction),"in methyl acetate, 313.15 K",0.0245
same,solubility (mole fraction),"in methyl acetate, 318.15 K",0.03
same,solubility (mole fraction),"in n-butanol, 278.15 K",0.00564
same,solubility (mole fraction),"in n-butanol, 283.15 K",0.00701
same,solubility (mole fraction),"in n-butanol, 288.15 K",0.00832
same,solubility (mole fraction),"in n-butanol, 293.15 K",0.0105
same,solubility (mole fraction),"in n-butanol, 298.15 K",0.0127
same,solubility (mole fraction),"in n-butanol, 303.15 K",0.016
same,solubility (mole fraction),"in n-butanol, 308.15 K",0.0196
same,solubility (mole fraction),"in n-butanol, 313.15 K",0.0242
same,solubility (mole fraction),"in n-butanol, 318.15 K",0.0296
same,solubility (mole fraction),"in n-butyl acetate, 278.15 K",0.00168
same,solubility (mole fraction),"in n-butyl acetate, 283.15 K",0.00206
same,solubility (mole fraction),"in n-butyl acetate, 288.15 K",0.00259
same,solubility (mole fraction),"in n-butyl acetate, 293.15 K",0.00329
same,solubility (mole fraction),"in n-butyl acetate, 298.15 K",0.00406
same,solubility (mole fraction),"in n-butyl acetate, 303.15 K",0.00505
same,solubility (mole fraction),"in n-butyl acetate, 308.15 K",0.0063
same,solubility (mole fraction),"in n-butyl acetate, 313.15 K",0.00785
same,solubility (mole fraction),"in n-butyl acetate, 318.15 K",0.00945
same,solubility (mole fraction),"in n-propanol, 278.15 K",0.00803
same,solubility (mole fraction),"in n-propanol, 283.15 K",0.00912
same,solubility (mole fraction),"in n-propanol, 288.15 K",0.0108
same,solubility (mole fraction),"in n-propanol, 293.15 K",0.0132
same,solubility (mole fraction),"in n-propanol, 298.15 K",0.0157
same,solubility (mole fraction),"in n-propanol, 303.15 K",0.019
same,solubility (mole fraction),"in n-propanol, 308.15 K",0.0233
same,solubility (mole fraction),"in n-propanol, 313.15 K",0.028
same,solubility (mole fraction),"in n-propanol, 318.15 K",0.0335
same,solubility (mole fraction),"in n-propyl acetate, 278.15 K",0.00227
same,solubility (mole fraction),"in n-propyl acetate, 283.15 K",0.00268
same,solubility (mole fraction),"in n-propyl acetate, 288.15 K",0.00342
same,solubility (mole fraction),"in n-propyl acetate, 293.15 K",0.00417
same,solubility (mole fraction),"in n-propyl acetate, 298.15 K",0.00522
same,solubility (mole fraction),"in n-propyl acetate, 303.15 K",0.00654
same,solubility (mole fraction),"in n-propyl acetate, 308.15 K",0.00831
same,solubility (mole fraction),"in n-propyl acetate, 313.15 K",0.0101
same,solubility (mole fraction),"in n-propyl acetate, 318.15 K",0.0127
